Source: paper PMC3677620, “Cytotoxicity and In Vitro Antileishmanial Activity of Antimony (V), Bismuth (V), and Tin (IV) Complexes of Lapachol” (Bioinorganic Chemistry and Applications, 2013)
Converted amounts (≈) assume the structure as drawn. “And” between values parts separate entries of the source, which are not always exact repeats. Identical values can stand only once. Like-named read-outs stand apart in the source and are kept apart here.

Experiments:
HepG2 cells = test: Cytotoxicity test, MTT method, HepG2 cells; details: for MLD50: the minimum lethal dose that killed 50% of the cells, HepG2: MTT, 24 h; for MLD50, the minimum lethal dose (Figure 2): hepatoma HepG2 cell, curve of one representative experiment
Description: (§1) Balb/c murine peritoneal macrophages were obtained as described above. Cytotoxicity was determined using the MTT method (3-(4,5-dimethylthiazol-2-yl)-2,5-diphenyl tetrazolium bromide) (Sigma). HepG2 cells were kept in RPMI medium supplemented with 10% FBS, and confluent monolayers were trypsinized, washed in RPMI, and transferred to 96-well microtiter plates (4 × 10^4 cells/well) for 16–18 h. Murine macrophages were used in the concentration 2 × 10^5 cells/well in 96-well microtiter plates. The compounds were serial diluted in different concentrations (10 → 0.16 mg/mL). In both tests, the medium was removed, and the compounds were incubated for 24 h (37°C, 5% CO2). Colorimetric reaction was developed following the incubation with MTT (37°C, 5% CO2, 4 h) and addition of acidified isopropanol. The reaction was read spectrophotometrically (Spectramax M5, Molecular Devices, San Francisco, CA) with a 570 nm filter and a background of 670 nm. Incubations were tested in triplicate in two independent experiments. The minimum dose that killed 50% of the cells (MLD50) was determined, and the values were plotted to generate dose-response curves using Microcal Origin Software (Northampton, MA, USA).

murine macrophages = test: Cytotoxicity test, MTT method, murine peritoneal macrophages; details: for MLD50: the minimum lethal dose that killed 50% of the cells, macrophages: murine peritoneal macrophages, MTT, 24 h
Description: (§2) Animals were kept in the Animal Facility of the Centro de Pesquisas René Rachou/FIOCRUZ in strict accordance to the Guide for the Care and Use of Experimental Animals. The procedures were approved by the Internal Ethics Committee in Animal Experimentation (CEUA) of Fundação Oswaldo Cruz (FIOCRUZ), Brazil (Protocol L-042/08). Mice were euthanized with CO2 in an induction chamber prior to macrophage removal. Balb/c mice were injected intraperitoneally with 2 mL of 3% sodium thioglycollate medium. After 72 h, peritoneal macrophages were removed by washing with cold RPMI 1640 medium and enriched by adherence to round glass coverslips (13 mm) placed in a 4-well culture plate. Cells (2 × 10^5 cells/well) were cultured (37°C, 5% CO2, 18 h) in RPMI supplemented with 10% heat-inactivated FBS (fetal bovine serum) prior to infection with parasites. Macrophages were exposed to stationary phase promastigotes (2 × 10^6/well) at a final ratio of 1 : 10. The plates were incubated at 37°C, 5% CO2, for 5 h in BOD to allow internalization of parasites. Then, the medium was removed for the remaining noninternalized parasites. Negative control included only infected macrophages and medium. Incubations were tested in duplicate in two independent experiments. The substances were serial diluted with RPMI 1640 medium supplemented with 10% FBS at five different concentrations (50 → 3.1 μg/mL). For compounds (3) and (6), the dilution was 10 → 0.016 μg/mL. […] Infected macrophages were exposed daily to the compounds for 3 consecutive days. After this period, coverslips were collected, stained with Panoptic (Laborclin), and subsequently mounted with Entellan (Merck) on glass slides.
as §1, with “The cell lineage HepG2 A16 was derived from a human hepatocellular carcinoma cell line HepG2 (ATCC HB-8065) and obtained from America Type Culture Collection line (ATCC). Balb/c” for “Balb/c”

L. amazonensis [1] = test: In vitro classic microscopic test, intracellular amastigotes in infected murine peritoneal macrophages; type: cell-based, Leishmania amazonensis (IFLA/BR/1967/PH8); details: for IC50: the inhibitory concentration that killed 50% of the L. amazonensis: intracellular amastigotes in Balb/c peritoneal macrophages, 3 days exposure, based on percentage of infected macrophages; for IC50: Leishmania amazonensis, Peritoneal macrophage, 72 h; for IC50, half-maximal inhibitory response (Figure 2): intracellular L. amazonensis, curve of one representative experiment
Description: The World Health Organization (WHO) reference strain L. amazonensis (IFLA/BR/1967/PH8) was used and typed as previously described. Promastigote forms were grown at 25°C in M199 medium (Sigma) supplemented with 10% heat-inactivated fetal calf serum (Cultilab), 40 mmol/L HEPES (Amersham), 0.1 mmol/L adenine (Sigma), 0.0005% hemin (Sigma), 0.0002% biotin (Sigma), 50 units/mL penicillin, and […] streptomycin (Invitrogen).
as §2
The in vitro classic microscopic test enables direct counting to determine the percentage of infected cells and/or the number of amastigotes. Here, the IC50 values were calculated based on the percentage of infected macrophages.

L. amazonensis [2] = system: L. amazonensis; parameters: method as in PMID 15654435; details: strain MHOM/BR/77/LTB0016 ref 5; cited from earlier work
L. braziliensis = system: L. braziliensis; parameters: method as in PMID 15654435; details: cited from earlier work

| Compound | MLD50: the minimum lethal dose that killed 50% of the cells, HepG2 (HepG2 cells) [µg/mL] | MLD50: the minimum lethal dose that killed 50% of the cells, macrophages (murine macrophages) [µg/mL] | IC50: the inhibitory concentration that killed 50% of the L. amazonensis (L. amazonensis [1]) | IC50 (L. amazonensis [1]; read-out: IC50: the inhibitory concentration that killed 50% of the L. amazonensis) [µg/mL] | MLD50, the minimum lethal dose (Figure 2) (HepG2 cells) [µg/mL] | IC50, half-maximal inhibitory response (Figure 2) (L. amazonensis [1]) [µg/mL] | SI: selective index, HepG2 (HepG2 cells; MLD50/IC50 ratio, HepG2 cells versus L. amazonensis) | SI: selective index, macrophages (murine macrophages; MLD50/IC50 ratio, murine macrophages versus L. amazonensis) | IC50 against L. amazonensis, previous studies (L. amazonensis [2]) [µg/mL] | IC50 (L. amazonensis [1]; read-out: IC50: the inhibitory concentration that killed 50% of the L. amazonensis, intracellular amastigotes in Balb/c peritoneal macrophages, 3 days exposure, based on percentage of infected macrophages) [µg/mL] | IC50 observed for L. braziliensis (L. braziliensis) [µg/mL] |
| --- | --- | --- | --- | --- | --- | --- | --- | --- | --- | --- | --- |
| (Lp)(Ph3Sb)OH [(2)] | 325.22 ± 89.40 | 130.65 ± 40.52 | > 10 µg/mL and 18.27 ± 5.58 µg/mL |  |  |  |  |  |  |  |  |
| C[C@@H]1[C@H](O)[C@@H](C)/C=C/C=C/C=C/C=C/C=C/C=C/C=C/[C@H](O[C@@H]2O[C@H](C)[C@@H](O)[C@H](N)[C@@H]2O)C[C@@H]2O[C@](O)(C[C@@H](O)C[C@@H](O)[C@H](O)CC[C@@H](O)C[C@@H](O)CC(=O)O[C@H]1C)C[C@H](O)[C@H]2C(=O)O [Amphotericin B] | 644.59 ± 126.57 | 179.95 ± 8.84 |  | 0.73 ± 0.6 (≈ 0.79 µM) |  |  |  |  |  |  |  |
| (Lp)(Ph3Bi)O0.5 [(1)] | 58.38 ± 8.47 | 32.4 ± 8.20 |  |  |  |  |  |  |  |  |  |
| [Cl][Bi]([Cl])([c]1ccccc1)([c]1ccccc1)[c]1ccccc1 [(4), Triphenylbismuth dichloride] | 183.75 ± 4.77 | 25.15 ± 0.49 | 5.40 ± 0.16 µg/mL |  | 187.1 | 5.51 |  |  |  |  |  |
| [Cl][Sb]([Cl])([c]1ccccc1)([c]1ccccc1)[c]1ccccc1 [(5), triphenylantimony dichloride] | 157.46 ± 37.13 | 30.75 ± 6.01 | 11.61 ± 7.85 µg/mL |  |  |  |  |  |  |  |  |
| CC(C)=CCC1=C(O)C(=O)c2ccccc2C1=O [(7), 2-hydroxy-3-(3′-methyl-2-butenyl)-1,4-naphthoquinone] | 201.77 ± 5.32 | 184.65 ± 6.58 | 15.48 ± 5.23 µg/mL |  |  |  | 13.03 | 11.92 | 5.2 ± 0.70 (≈ 21.5 µM) | > 10 | 11.9 ± 6.9 |
| [Cl][Sn]([c]1ccccc1)([c]1ccccc1)[c]1ccccc1 [(6), triphenyltin chloride] | 12.04 ± 8.42 | 0.73 ± 0.13 | 0.10 ± 0.11 µg/mL |  | 18 | 0.18 |  |  |  |  |  |
| (Lp)(Ph3Sn) [(3)] | 12.01 ± 0.17 | 1.6 ± 0.57 | 0.17 ± 0.03 µg/mL |  | 11.9 | 0.15 |  |  |  |  |  |
